Assay results from patent publication US10301355B2, “Method of using pharmaceutical compositions comprising selective peptide-based agonists of melanocortin 1 receptor” (University of Cincinnati, priority 2012, dated 2019).
Entries after “also recorded” stand apart in the source; their conditions may differ.

Legend:
MC1R [1] = biological target: T1, MC1R (Homo sapiens, UniProt Q01726); experiment: Stimulation of cAMP formation in cultured human melanocytes; assay type: cell-based; parameters: endogenous in cells; host or cells: cultured human melanocytes; details: for cAMP compared to 10 nM αMSH: cultured human melanocytes; for potency in stimulating cAMP formation, comparison: human melanocytes, 45 minutes of treatment
Experimental: Peptides were tested on cultured human melanocytes for their capacity to activate MC1R, as measured by stimulating cAMP formation. After 45 minutes of treatment with different concentrations of peptides, cAMP levels were measured using a I^125-labeled radioimmunoassay kit.
(§1) Peptides were tested as described in Example 4 above on cultured human melanocytes for their capacity to activate MC1R, as measured by stimulating cAMP formation, and for their capacity for stimulating tyrosinase activity, the rate-limiting enzyme for melanin synthesis. The tested peptides were synthesized according to the formula: Ar(CH2)mX^1—X^2—CO—X^3—X^4—X^5-(Trp)n-NX^6R wherein X^1 and X^2 are absent, X^3 is His, X^5 is Arg, and X^6 is H. X^4 amino acids were in the D-stereoisomer form, unless otherwise noted.

tyrosinase = experiment: Stimulation of tyrosinase activity in cultured human melanocytes; assay type: cell-based; details: for TA compared to 10 nM αMSH: tyrosinase activity, cultured human melanocytes
Experimental: Peptides were tested on cultured human melanocytes for their capacity for stimulating tyrosinase activity, the rate-limiting enzyme for melanin synthesis. Melanocytes were treated every other day, for a total of 6 days, with increasing concentrations of peptides. Medium containing H^3-tyrosine, the substrate for tyrosinase, was added to melanocytes 24 hours before the end of the 6-day treatment. Tyrosinase activity was measured by determining the amount of ^3H2O generated as […] is catalyzed by tyrosinase for melanin synthesis.
as §1

hMC5R = biological target: T2, hMC5R (Homo sapiens, UniProt P33032); experiment: cAMP stimulation in heterologous cells expressing hMC5R; assay type: cell-based; details: for HMC5R % MAX. ACTIVITY: cAMP, heterologous cells
T2 construct: expressed in transfected cells
Experimental: (§2) Receptor selectivity of peptide agonists for hMC1R was determined by stimulation of cAMP in heterologous cells expressing different human melanocortin receptors (MC1R, MC3R, MC4R, and MC5R).

MC1R [2] = biological target: T1, MC1R; experiment: cAMP stimulation in heterologous cells expressing hMC1R; assay type: cell-based; parameters: expressed in transfected cells; details: for HMC1R % MAX. ACTIVITY: cAMP, heterologous cells
Experimental: as §2

hMC3R = biological target: T3, hMC3R (Homo sapiens, UniProt P41968); experiment: cAMP stimulation in heterologous cells expressing hMC3R; assay type: cell-based
T3 construct: expressed in transfected cells
Experimental: as §2

hMC4R = biological target: T4, hMC4R (Homo sapiens, UniProt P32245); experiment: cAMP stimulation in heterologous cells expressing hMC4R; assay type: cell-based
T4 construct: expressed in transfected cells
Experimental: as §2

[3] = system: UV-irradiated human melanocytes; experiment: Repair of UV-induced 8-oxodG; assay type: cell-based
Experimental: To investigate the effects of peptides on repair of UV-induced DNA damage, levels of 8-oxodG, a major form of oxidative DNA damage, were measured in UV-irradiated human melanocytes with or without peptide treatment. […] Fluorescence intensity, which correlates with the amount of DNA damage, was quantified using ImagJ software.

[4] = system: UV-irradiated human melanocytes; experiment: Repair of UV-induced cyclobutane pyrimidine dimers (CPD); assay type: cell-based
Experimental: To investigate the effects of peptides on the repair of UV-induced DNA damage, levels of cyclobutane pyrimidine dimers (CPD), the major form of DNA photoproducts, were measured in UV-irradiated human melanocytes with or without peptide treatment. Melanocytes were pretreated with the peptides for 4 days prior to, and for 48 hours post UV exposure, harvested, immunostained by a specific antibody for CPD, and analyzed by flow cytometry.

[5] = Peptide storage stability by HPLC; assay type: physicochemical; details: lyophilized, open air, room temperature, 4 months
Experimental: LK-513 (Ph(CH2)3CO-His-(D-4-Bip)-Arg-NHMe) was tested for stability and degradation over a storage period. The peptide was stored in a lyophilized form in open air at room temperature for 4 months. After 4 months, HPLC was performed on a test sample of the peptide in order to measure degradation, using standard methods (FIG. 1). […] Without being bound by theory, it is believed that the enhanced stability is a product of the absence of amide bonds between natural L-L-amino acids in the tripeptides and the existence of only one amide bond between natural amino acids in the tetrapeptides (Arg-Trp). Amide bonds between non-natural D- and natural L-amino acids are less prone to chemical and enzymatic hydrolysis, as evidenced by the FIG. 1. Further, the bulk and hydrophobicity of the X4 amino acid (D-Phe or a bulky hydrophobic analog thereof, such as D-4-Bip in the case of LK-513) shield the polar amid bonds of the peptide from chemical and enzymatic degradation.

[6] = human melanocytes, 6 days treatment

T4 sequence (P32245 whole entry): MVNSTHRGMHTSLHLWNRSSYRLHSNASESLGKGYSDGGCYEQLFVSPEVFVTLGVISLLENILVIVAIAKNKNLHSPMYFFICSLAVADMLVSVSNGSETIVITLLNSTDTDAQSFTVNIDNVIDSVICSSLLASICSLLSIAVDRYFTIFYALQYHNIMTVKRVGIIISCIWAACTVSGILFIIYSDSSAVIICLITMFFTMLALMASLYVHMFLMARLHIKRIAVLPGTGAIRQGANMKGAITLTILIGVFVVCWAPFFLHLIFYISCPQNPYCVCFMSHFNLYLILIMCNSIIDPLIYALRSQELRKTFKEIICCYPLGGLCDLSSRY
T2 sequence (P33032 whole entry): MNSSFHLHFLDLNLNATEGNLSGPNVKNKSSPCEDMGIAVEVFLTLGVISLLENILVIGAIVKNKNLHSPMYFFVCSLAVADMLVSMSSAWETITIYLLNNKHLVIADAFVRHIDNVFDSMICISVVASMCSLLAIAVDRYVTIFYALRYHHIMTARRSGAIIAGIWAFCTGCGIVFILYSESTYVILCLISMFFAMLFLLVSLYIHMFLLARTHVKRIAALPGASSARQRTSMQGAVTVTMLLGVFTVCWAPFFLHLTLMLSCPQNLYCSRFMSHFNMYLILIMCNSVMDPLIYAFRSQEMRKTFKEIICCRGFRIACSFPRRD
T1 sequence (Q01726 whole entry): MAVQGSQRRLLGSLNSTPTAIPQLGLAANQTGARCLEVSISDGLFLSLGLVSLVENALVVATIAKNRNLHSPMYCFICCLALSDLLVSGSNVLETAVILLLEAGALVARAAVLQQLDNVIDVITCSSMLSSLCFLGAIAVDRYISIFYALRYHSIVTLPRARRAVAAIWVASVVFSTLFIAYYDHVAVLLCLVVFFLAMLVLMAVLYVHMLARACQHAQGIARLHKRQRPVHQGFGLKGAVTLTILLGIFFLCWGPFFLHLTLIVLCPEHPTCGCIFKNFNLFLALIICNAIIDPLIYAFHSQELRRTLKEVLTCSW
T3 sequence (P41968 whole entry): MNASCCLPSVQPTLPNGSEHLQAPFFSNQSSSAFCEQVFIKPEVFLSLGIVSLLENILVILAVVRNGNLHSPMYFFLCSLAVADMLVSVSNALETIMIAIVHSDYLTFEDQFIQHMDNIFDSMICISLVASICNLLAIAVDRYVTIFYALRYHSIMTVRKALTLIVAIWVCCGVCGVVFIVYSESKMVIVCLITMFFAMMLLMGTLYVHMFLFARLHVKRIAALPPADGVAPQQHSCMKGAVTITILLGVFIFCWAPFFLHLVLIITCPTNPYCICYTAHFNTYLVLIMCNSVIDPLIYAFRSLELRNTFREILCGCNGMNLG

## Ph(CH2)3CO-His-(D-4-Bip)-Arg-NHEt [493P]
MC1R [1]
  cAMP compared to 10 nM αMSH: <<

## Ph(CH2)3CO-His-(D-2-Nal)-Arg-NH2 [515P]
tyrosinase
  TA compared to 10 nM αMSH: <<

## Ph(CH2)3CO-His-(D-4-tBuPhe)-Arg-NHEt [494P]
MC1R [1]
  cAMP compared to 10 nM αMSH: <<

## melanotan II [MT-II, reference compound]
hMC5R
  HMC5R % MAX. ACTIVITY: 100%
MC1R [2]
  HMC1R % MAX. ACTIVITY: 103%

## CC(C)(C)c1ccc(C[C@@H](NC(=O)[C@H](Cc2c[nH]cn2)NC(=O)CCCc2ccccc2)C(=O)N[C@@H](CCCNC(=N)N)C(N)=O)cc1 [LK-514, Ph(CH2)3CO-His-(D-4-tBuPhe)-Arg-NH2]
hMC3R
  binding of MC3R: do not bind
hMC4R
  binding of MC4R: do not bind
hMC5R
  binding of MC5R: do not bind
tyrosinase; [6]
  concentration at which significant stimulation of tyrosinase activity begins: 1 nM
  effect on tyrosinase activity, comparison: the most effective
tyrosinase
  TA compared to 10 nM αMSH: <
[3]; peptide at 100 nM, 24 hours post UV
  reduction of 8-oxodG levels compared with 1 nM α-MSH: greater effect than 1 nM α-MSH
MC1R [2]
  potency in activation of MC1R compared with MT-II: about as potent as MT-II
  HMC1R % MAX. ACTIVITY: 94%
MC1R [1]
  cAMP compared to 10 nM αMSH: <
  potency in stimulating cAMP formation, comparison: about ten times less potent than a-MSH; also recorded: more potent than LK-511 or 513; also recorded: about ten times less potent than α-MSH; also recorded: more potent than LK-511 or LK-513

## N=C(N)NCCC[C@H](NC(=O)[C@@H](Cc1cccc2ccccc12)NC(=O)[C@H](Cc1c[nH]cn1)NC(=O)CCCc1ccccc1)C(=O)N[C@@H](Cc1c[nH]c2ccccc12)C(N)=O [LK-467, Ph(CH2)3CO-His-(D-1-Nal)-Arg-Trp-NH2]
hMC3R; cAMP, heterologous cells
  HMC3R % MAX. ACTIVITY: 7%
hMC4R
  potency at hMC4R compared with LK-184: about ten times less potent
hMC4R; cAMP, heterologous cells
  HMC4R % MAX. ACTIVITY: 39%
hMC5R
  HMC5R % MAX. ACTIVITY: 34%
tyrosinase; [6]
  effect on tyrosinase activity, comparison: comparable effects in tyrosinase activity
  potency relative to a-MSH in activating MC1R and stimulating melanogenesis: at least 100 times
[4]; 48 hours after UV exposure
  reduction of CPD levels, comparison with LK-184: as effective as LK-184
[4]; peptide at 1 nM, 48 hours post UV
  CPD removal compared with 10 nM α-MSH: same effect at 1 nM on CPD removal as 10 nM a-MSH; also recorded: same effect at 1 nM on CPD removal as 10 nM α-MSH
[3]; 24 hours after UV exposure
  reduction of 8-oxodG levels, comparison with LK-184: as effective as LK-184
MC1R [2]
  HMC1R % MAX. ACTIVITY: 111%
MC1R [1]
  cAMP compared to 10 nM αMSH: >
  potency in stimulating cAMP formation, comparison: more potent than LK-184

## Ph(CH2)3CO-His-(D-4-FPhe)-Arg-Trp-NH2 [470P]
MC1R [1]
  cAMP compared to 10 nM αMSH: >

## Ph(CH2)3CO-His-(D-4-tBuPhe)-Arg-NHMe [516P]
tyrosinase
  TA compared to 10 nM αMSH: <<

## Ph(CH2)3CO-His-(D-1-Nal)-Arg-NHEt [491P]
MC1R [1]
  cAMP compared to 10 nM αMSH: NR (NR = No Response/inactive at 10 nM)

## Ph(CH2)3CO-His-(D-2-Nal)-Arg-Trp-NH2 [468P]
MC1R [1]
  cAMP compared to 10 nM αMSH: ≤

## Ph(CH2)3CO-His-(D-1-Nal)-Arg-NH2 [510P]
tyrosinase
  TA compared to 10 nM αMSH: NR (NR = No Response/inactive at 10 nM)

## 4-FC6H4CH2CO-His-(D-4-FPhe)-Arg-Trp-NH2 [205P]
tyrosinase
  TA compared to 10 nM αMSH: ≥
MC1R [1]
  cAMP compared to 10 nM αMSH: ≤

## CNC(=O)[C@H](CCCNC(=N)N)NC(=O)[C@@H](Cc1ccc(-c2ccccc2)cc1)NC(=O)[C@H](Cc1c[nH]cn1)NC(=O)CCCc1ccccc1 [LK-513, Ph(CH2)3CO-His-(D-4-Bip)-Arg-NHMe]
hMC3R
  binding of MC3R: do not bind
hMC4R
  binding of MC4R: do not bind
hMC5R
  binding of MC5R: do not bind
[5]
  stability and degradation on storage (HPLC): highly stable and resistant to degradation, showing only a single HPLC peak; also recorded: highly stable and substantially free of degradation
tyrosinase; [6]
  concentration at which significant stimulation of tyrosinase activity begins: 1 nM
tyrosinase
  TA compared to 10 nM αMSH: <
MC1R [2]
  potency in activation of MC1R compared with MT-II: about as potent as MT-II
  HMC1R % MAX. ACTIVITY: 95%
MC1R [1]
  cAMP compared to 10 nM αMSH: <
  potency in stimulating cAMP formation, comparison: about ten times less potent than a-MSH; also recorded: about ten times less potent than α-MSH

## Ph(CH2)3CO-His-(D-4-IPhe)-Arg-Trp-NH2 [475P]
MC1R [1]
  cAMP compared to 10 nM αMSH: <; >

## 4-FC6H4CH2CO-His-(D-2-Nal)-Arg-NHEt [496P]
MC1R [1]
  cAMP compared to 10 nM αMSH: NR (NR = No Response/inactive at 10 nM)

## Ph(CH2)3CO-His-(D-4-BrPhe)-Arg-Trp-NH2 [474P]
MC1R [1]
  cAMP compared to 10 nM αMSH: =; <; >
